How the values were obtained:
[1] = test system: nitric oxide (NO) in RAW 264.7 macrophages; experiment: LPS-stimulated nitric oxide (Griess reaction) in RAW 264.7 macrophages; type: cell-based, mouse; conditions: 20 μg ml^−1; LPS 100 ng ml^−1 24 h; LPS alone 66.87%
Experimental: After 24 h, 100 μl of culture supernatant was collected and mixed with 100 μl of Griess reagent in a 96-well plate and incubated for 15 min at room temperature. The optical density was spectroscopically measured at 540 nm using TRIAD multimode reader (Dynex Technologies, Inc., Chantilly, Va.). The experiments were run in triplicates and reported as the percentage of NO produced.

[2] = test system: cyclooxygenase-2 (COX-2) in RAW 264.7 cells; experiment: LPS-induced COX-2 immunoblot in RAW 264.7 cells; type: cell-based, mouse; conditions: 10 and 50 μg ml^−1, 24 h, LPS 100 ng ml^−1
Experimental: In independent experiments, RAW-264.7 cells were treated with Brevisan, Microsan and M-EPS-Au-NP (10 and 50 μg ml^−1 each) and then stimulated with 100 ng ml^−1 of LPS. After 24 h, the cells were washed with PBS and suspended in a lysis buffer containing 20 mM Tris, I mM EDTA, 150 mM NaCl, 1% NP-40, 0.5% sodium deoxycholate, 1 mM β-glycerophosphate, 1 mM sodium orthovanadate, 1 mM PMSF, 10 mg ml^−1 leupeptin, 20 mg ml^−1 aprotinin. The mixture was centrifuged at 10,000 rpm at 4° C. for 10 min to obtain the cell lysate. The protein content was determined by Bradford method [Bradford, M. M. (1976) Anal. Biochem. 72, 248-258]. An equal amount of total cell lysate was resolved on 12% SDS-PAGE gels and then transferred onto nitrocellulose membranes. Membranes were blocked with 5% w/v non-fat dry milk and then incubated with the primary antibodies for mouse COX-2 and β-actin with gentle shaking at 4° C. for 12 h and then incubated with peroxidase-conjugated secondary antibodies. The blots were developed using peroxidase substrates, TMB (3,3,5,5-tetramethylbenzidine)/H2O2.

TNF-α in RAW 264.7 cells = experiment: LPS-induced TNF-α ELISA in RAW 264.7 cells; type: cell-based, mouse; conditions: 50 μg ml^−1; LPS 100 ng ml^−1 24 h; LPS alone 215.79
Experimental: The effect of Brevisan, Microsan and M-EPS-Au-NP on the release of proinflammatory cytokines, TNF-α and IL-6, was measured using ELISA kits (Biosource International, Camarillo, Calif., USA). In independent experiments, the RAW-264.7 cells were treated with different concentrations (1, 10, 50 and 100 μg ml^−1) of Brevisan, Microsan and M-EPS-Au-NP and then stimulated with 100 ng ml^−1 of LPS. The supernatants were harvested after 24 h and the concentrations of TNF-α and IL-6 was measured using an ELISA kit according to the manufacturer's instructions.

[3] = test system: C3 complement component in RAW 264.7 macrophages; experiment: LPS-induced C3 complement component production ELISA in RAW 264.7 macrophages; type: cell-based, mouse; conditions: 1, 10, 20 and 50 μg/ml; LPS 100 ng ml^−1 24 h
Experimental: The effect of Brevisan, Microsan and M-EPS-Au-NP on C3 complement component was measured using ELISA kits (Antibodies, Atlanta, USA). RAW 264.7 cells were treated with Brevisan, Microsan and M-EPS-Au-NP at 1, 10, 20 and 50 μg/ml, respectively, and then stimulated with 100 ng ml^−1 of LPS. After incubating for 24 h, 50 μl of supernatant was collected and added to each well in an antibody coated 96-well plate. After I h, the wells were washed with PBS and incubated with 100 μl of horse radish peroxidase (HRP)-conjugate for 1 h at 37° C. and then incubated with 50 μl of O-phenylenediamine (0.2% w/v in 0.017 M citrate phosphate buffer, pH 6) and 50 μl of 0.015% hydrogen peroxide for 15 min and the reaction was stopped by adding 50 μl of 12.5% sulphuric acid and the optical density was measured at 450 nm using Biotek EIA Reader (Biotek Instruments, Inc., VT, USA). The results shown are the average of three independent experiments. Further, the hemolytic activity of the secreted C3 was measured as described earlier [Gasque, P., Julen, N., Ischenko, A. M., Picot, C., Mauger, C., Chauzy, C., Ripoche, J. and Fontaine, M. (1992) J. Immunol. 149, 1381-1389]. […] Then 1.5 ml of PBS was added, centrifuged at 10,000 rpm for 5 min and the hemoglobin released present in the supernatant was quantified by measuring the absorbance at 415 nm. […]

[4] = Surface tension, Wilhelmy plate method; type: physicochemical; conditions: from 72
Experimental: The bacterial strains producing biosurfactants were isolated from the petroleum-contaminated soil sample collected from Mupkal, Nizamabad, Andhra Pradesh, India (latitude 18.90° N and longitude 78.36° E). The soil sample was enriched by placing 1.0 g of soil sample in 100 ml of mineral salts medium supplemented with N-hexadecane (1%, v/v) as a sole carbon source for three weeks. The enriched sample was serially diluted and then plated on the mineral salts agar plates overlaid with N-hexadecane which acted as a sole carbon source. The colonies that appeared on the plates upon incubation at 37° C. for 72 h were purified for 2-3 times on nutrient agar plates. The isolated pure microorganisms were cultured in liquid mineral salts medium at 37° C. for 72 h. The cells were separated by centrifugation and the cell-free supernatant was measured for the reduction in surface tension values by Wilhelmy plate method using a Du-Nouy K100MK2 Processor Tensiometer (Krüss, Hamburg, Germany). The concentration series was generated automatically with a computer-controlled Dosimat (Metrohm AG, Switzerland). […] The critical micelle concentration (CMC) was measured by plotting the concentration of surfactant as a function of surface tension, and the CMC was taken as the point where the slope of the curve abruptly changed. […]

## β-D-glucuronyl-(1-2)-D-mannosyl-(1-4)-D-glucose [Microsan]
[1]
  LPS-stimulated NO levels after treatment: 20.05%
[2]
  induction of COX-2 (Western blot): significantly inhibited
TNF-α in RAW 264.7 cells
  TNF-α production after treatment: 98.88 µg/mL
[3]
  inhibition of C3 complement component production: did not inhibit
[4]
  surface tension of water reduced to: 31.2 mN m^−1

Reference: US10106627B2, “Process for the preparation of polymeric biosurfactants” (priority 2014, dated 2018)
